Results as given in PMC9060532 (RSC Advances, 2019).
Each block holds one molecule with its values, some of them ahead of it.

How the values were obtained:
[1] = Metabolite identification in rat plasma, urine and feces by HPLC-Q-TOF MS/MS; assay type: in vivo, Sprague-Dawley rats; conditions: rats, bornyl caffeate ig 30 mg kg^−1; p plasma, u urine, f feces
[2] = Pharmacokinetic study in rats, plasma by HPLC-Ion-Trap-MS/MS; assay type: in vivo, Sprague-Dawley rats
[3] = Stability of bornyl caffeate and caffeic acid in rat plasma; assay type: in vitro ADME; conditions: for Autosampler stability Concentration measured / Autosampler stability Stability (%): processed rat plasma QC, autosampler 20 °C 24 h; for Autosampler stability Concentration measured / Autosampler stability Stability (%) / Short-term Concentration measured / Short-term Stability (%) / Freeze–thaw Concentration measured / Freeze–thaw Stability (%) / Long-term Concentration measured / Long-term Stability (%): n = 6; for Short-term Concentration measured / Short-term Stability (%) / Freeze–thaw Concentration measured / Freeze–thaw Stability (%) / Long-term Concentration measured / Long-term Stability (%): rat plasma; for Short-term Concentration measured / Short-term Stability (%): room temperature 24 h; for Freeze–thaw Concentration measured / Freeze–thaw Stability (%): three freeze–thaw cycles (−20 °C 24 h); for Long-term Concentration measured / Long-term Stability (%): −20 °C 3 weeks
[4] = CA in rat plasma after CA ig 17 mg kg^−1, n = 6
[5] = Sprague-Dawley, rat, plasma, po, 17 mg/kg

Structure (SMILES): O=C(O)CCc1ccc(O)c(O)c1 [M4, Dihydrocaffeic acid]
Location (samples in which parent or metabolite was detected) [1]: observed in all the three kinds of samples

Structure (SMILES): COc1cc(CCC(=O)O)ccc1O [M9a, Dihydroferulic acid]
Location (samples in which parent or metabolite was detected) [1]: found in rat feces alone

Structure (SMILES): COc1ccc(/C=C/C(=O)O)cc1O [M14b, Isoferulic acid]
Location (samples in which parent or metabolite was detected) [1]: observed in all the three kinds of samples

Next, values leading:

T 1/2Ka [2, 4]: 7.2 ± 1.8 min | T 1/2α1 [2, 4]: 24 ± 5.4 min | AUC(0-inf) [2, 5]: 821 ± 86.2 ng·h/mL | AUC(0-t) [2, 5]: 787 ± 80.3 ng·h/mL | Cmax [2, 5]: 450 ± 13.8 ng/mL | Tmax [2, 5]: 15 ± 0.6 min | Autosampler stability Concentration measured ([3]; 4 ng mL^−1 added): 3.93 ± 0.16 ng/mL | Autosampler stability Stability (%) ([3]; 4 ng mL^−1 added): 98.25% | Autosampler stability Concentration measured ([3]; 200 ng mL^−1 added): 191.9 ± 6.19 ng/mL | Autosampler stability Stability (%) ([3]; 200 ng mL^−1 added): 95.95% | Autosampler stability Concentration measured ([3]; 3000 ng mL^−1 added): 2991.17 ± 12.48 ng/mL | Autosampler stability Stability (%) ([3]; 3000 ng mL^−1 added): 99.7% | Short-term Concentration measured ([3]; 4 ng mL^−1 added): 3.97 ± 0.15 ng/mL | Short-term Stability (%) ([3]; 4 ng mL^−1 added): 99.38% | Freeze–thaw Concentration measured ([3]; 4 ng mL^−1 added): 3.77 ± 0.14 ng/mL | Freeze–thaw Stability (%) ([3]; 4 ng mL^−1 added): 94.29% | Long-term Concentration measured ([3]; 4 ng mL^−1 added): 4.03 ± 0.18 ng/mL | Long-term Stability (%) ([3]; 4 ng mL^−1 added): 100.79% | Short-term Concentration measured ([3]; 200 ng mL^−1 added): 196.41 ± 4.57 ng/mL | Short-term Stability (%) ([3]; 200 ng mL^−1 added): 98.2% | Freeze–thaw Concentration measured ([3]; 200 ng mL^−1 added): 202.1 ± 6.48 ng/mL | Freeze–thaw Stability (%) ([3]; 200 ng mL^−1 added): 101.05% | Long-term Concentration measured ([3]; 200 ng mL^−1 added): 197.22 ± 6.86 ng/mL | Long-term Stability (%) ([3]; 200 ng mL^−1 added): 98.61% | Short-term Concentration measured ([3]; 3000 ng mL^−1 added): 3009.81 ± 6.45 ng/mL | Short-term Stability (%) ([3]; 3000 ng mL^−1 added): 100.33% | Freeze–thaw Concentration measured ([3]; 3000 ng mL^−1 added): 2835.08 ± 9.86 ng/mL | Freeze–thaw Stability (%) ([3]; 3000 ng mL^−1 added): 94.23% | Long-term Concentration measured ([3]; 3000 ng mL^−1 added): 2990.99 ± 4.97 ng/mL | Long-term Stability (%) ([3]; 3000 ng mL^−1 added): 99.7% | stability in plasma (in words) ([3]; room temperature for 24 h, −20 °C for 3 weeks, or autosampler for 24 h): stable
Structure (SMILES): O=C(O)/C=C/c1ccc(O)c(O)c1 [Caffeic acid]

Location (samples in which parent or metabolite was detected) [1]: urine and feces
Structure (SMILES): O=C(O)c1ccccc1 [M8, Benzoic acid]
